Here are results for 3 compounds from patent EP4799619A1, “COMPOUND TARGETING EGR-1 AND USE THEREOF FOR TREATMENT OF ATOPIC DERMATITIS” (AgeraMedi, Inc., priority 2023, dated 2025).

Assay [1] relates to IL-1β. The assay is described as follows: RT-PCR of EGR-1 target gene mRNA in TNFα-stimulated HaCaT cells: IL-1β. It is filed as cell-based, human. To be noted: 0, 5, 10, and 20 µM for 30 minutes, then TNFα 10 ng/mL for 12 hours, FIG. 14. The protocol:
(§1) To determine whether the compounds of the present invention (Compounds 21, 23, and 25) inhibit expression of TSLP, IL-1β, and IL-6 genes, which are EGR-1 target genes playing a key role in atopic dermatitis exacerbation, the inhibitory effect of the compounds on mRNA expression of an EGR-1 target gene TSLP was evaluated by reverse transcription-polymerase chain reaction (RT-PCR) in HaCaT keratinocyte cells.
(§2) Specifically, HaCaT keratinocyte cells (purchased from Cell Lines Service, Eppelheim, Germany) were passaged at a seeding density of 1x10^6 cells per 100 mm cell culture dish in Dulbecco's modified Eagle's medium (Invitrogen Life Technologies) containing 10% fetal bovine serum (Invitrogen Life Technologies) and antibiotic-antifungal agent mix solution (Invitrogen Life Technologies), once every two days, and cultured at 37 °C in a 5% CO2 incubator.
(§3) HaCaT cells were treated with the compounds of the present invention (Compound 21, Compound 23, and Compound 25) at concentrations of 0, 5, 10, and 20 µM, respectively, for 30 minutes, followed by treatment with TNFα in a concentration of 10 ng/mL for 12 hours, after which the cells were harvested. Total RNA was extracted using TRIzol RNA isolation reagents (TRIzol Life Technologies Korea). A total of 0.5 µg of total RNA was reverse transcribed to synthesize complementary DNA (cDNA) according to the method recommended by the manufacturer using an iScript cDNA synthesis kit (Bio-Rad, Hercules, Calif., U.S.A.). PCR was performed using 0.0125 µg of double-stranded cDNA.
(§4) Glyceraldehyde-3-phosphate dehydrogenase (GAPDH), a housekeeping gene, was used as the control group. The double-stranded cDNA was denatured at 95 °C for 5 minutes and then subjected to cycles of reaction at 94 °C for 1 minute, 65 °C for 2 minutes, and 70 °C for 1 minute, repeated 30 times. The final product of PCR was electrophoresed on 1% agarose gel, stained with ethidium bromide (EtBr), and confirmed.

The target in assay [2] is T1, EGR-1 (Homo sapiens, UniProt P18146). The assay is described as follows: Electrophoretic mobility shift assay (EMSA) of EGR-1 DNA binding. Also noted: made in house; host or cells: Sf21 insect cells (crude cell extract). To be noted: EGR-1 overexpressing Sf21 cell extract, biotin-labeled probe; FIG. 13. How it is done:
When a nucleic acid and a protein are bound to each other, the complex of the nucleic acid and the protein moves more slowly than the nucleic acid alone, so that in an EMSA, a band of the nucleic acid bound to the protein appears higher than a band of only the nucleic acid.
In detail, the protein-DNA binding was analyzed by purchasing a LightShift Chemiluminescence EMSA kit (ThermoFisher Scientific, Waltham, MA, USA). The probe sequence for EGR-1 was synthesized by Macrogen company (Seoul, Korea) by ordering a deoxynucleotide labeled with biotin at the EGR-1 binding sequence (5'-biotin-AGAGTGTGTCTCCTTCGCACACATC-3'). The EGR-1 protein used in the experiment was an Sf21 insect cell extract overexpressing human EGR-1 protein as described in Yeo et al. [Journal of Investigative Dermatology 2021; 141:1851-1855]. Wild-type Sf21 cell extract was used as a negative control. After reacting 3 µg of EGR-1 overexpressing Sf21 cell extract, 1 µl of the compound of the present invention at a concentration of 20 mM, 50 fmol of the biotin-labeled EGR-1 binding deoxyoligonucleotide probe, and 1 µg poly(dI-dC) (Amersham Pharmacia Biotech Inc) for 20 minutes, electrophoresis was performed on a 6% non-denaturing polyacrylamide gel. The electrophoresed sample was transferred to a nylon membrane (Immobilon-Ny+ Transfer membrane, Millipore) and soaked in 5% skim milk solution for 30 minutes. Then, horseradish peroxidase-conjugated streptavidin was added and reacted for 15 minutes, and after washing unbound proteins from the membrane, the EGR-1-DNA complex was detected on X-ray film using an enhanced chemiluminescence (ECL) detection system (ThermoFisher Scientific). The intensity of the EGR-1-DNA complex band was analyzed using the ImageJ program (National Institute of Health, USA), and the intensity of the sample without the compound was set to 100%, and relative intensities were measured.
(In general: A gel shift assay detects complexes by their altered migration in electrophoresis.)

The target of assay [3] is T1, EGR-1. The assay is described as follows: EGR-1 DNA binding activity assay (EDBA). Also noted: made in house. Particulars: EGR-1 DNA binding inhibitory activity; EGR-1 overexpressing cell lysate; absorbance at 450 nm; compound concentration not given. The procedure, abridged:
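Compound pre-incubated 30 min at room temperature with EGR-1-overexpressing cell lysate (10 mM Tris pH 7.5, 50 mM KCl, 2% BSA, 8% glycerol), then 1 h on avidin-immobilised biotin-EBS duplex DNA. Bound EGR-1 detected by antibody ELISA with HRP/TMB at 450 nm; % inhibition versus lysate-only wells.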

The subject of assay [4] is TSLP. As to the kind of experiment: RT-PCR of EGR-1 target gene mRNA in TNFα-stimulated HaCaT cells: TSLP. In kind it is cell-based, human. Particulars: 0, 5, 10, and 20 µM for 30 minutes, then TNFα 10 ng/mL for 12 hours, FIG. 14. The protocol:
as §1, §2, §3, §4

For assay [5], the system named is animal model of atopic dermatitis. The assay is described as follows: DNCB-induced animal model of atopic dermatitis, topical application. Particulars: 0.1% applied to ear; for epidermal thickness / dermal thickness: day 22, H&E staining; for epidermal thickness: normal 24.47±2.353, DNCB only 37.27±4.393; for dermal thickness: normal 143.2±19.61, DNCB only 197.5±17.83; for macroscopic skin condition: day 22, FIG. 15B; for expression of filaggrin / expression of TSLP: immunofluorescence of skin tissue; for expression of filaggrin: FIG. 17B; for expression of TSLP: compared to positive control group, FIG. 17A; for expression of MPO (neutrophil marker) / expression of F4/80 (macrophage marker): immunohistochemistry; for expression of MPO (neutrophil marker): FIG. 16C; for expression of F4/80 (macrophage marker): FIG. 16D; for mast cell infiltration / number of mast cells infiltrated: toluidine blue staining; for mast cell infiltration: compared to the positive control group, FIG. 16A; for number of mast cells infiltrated: normal 11±3, DNCB 38±6. It is filed as in vivo, BALB/c mice.

Assay [6] deals with IL-6. The assay is described as follows: RT-PCR of EGR-1 target gene mRNA in TNFα-stimulated HaCaT cells: IL-6. Particulars: 0, 5, 10, and 20 µM for 30 minutes, then TNFα 10 ng/mL for 12 hours, FIG. 14. It is filed as cell-based, human. The protocol:
as §1, §2, §3, §4

Molecules are shown by their SMILES.

T1 sequence (P18146 whole entry): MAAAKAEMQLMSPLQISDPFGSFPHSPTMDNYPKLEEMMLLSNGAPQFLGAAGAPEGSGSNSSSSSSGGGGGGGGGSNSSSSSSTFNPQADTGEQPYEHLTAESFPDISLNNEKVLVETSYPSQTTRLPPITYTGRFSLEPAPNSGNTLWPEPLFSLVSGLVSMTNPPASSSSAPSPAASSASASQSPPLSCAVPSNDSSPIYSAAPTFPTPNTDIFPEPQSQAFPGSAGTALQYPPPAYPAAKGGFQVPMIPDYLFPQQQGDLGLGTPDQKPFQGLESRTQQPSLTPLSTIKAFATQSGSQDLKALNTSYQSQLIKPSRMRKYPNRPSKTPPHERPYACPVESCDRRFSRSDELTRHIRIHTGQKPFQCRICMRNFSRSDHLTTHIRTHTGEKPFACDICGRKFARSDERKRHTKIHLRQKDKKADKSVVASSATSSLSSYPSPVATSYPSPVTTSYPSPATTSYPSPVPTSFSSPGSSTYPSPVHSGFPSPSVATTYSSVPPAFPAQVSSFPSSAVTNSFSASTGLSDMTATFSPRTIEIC

In the case of `O=C1Nc2c(F)cccc2/C1=N/NC(=S)Nc1ccc(C(F)(F)F)cc1` [Compound 21, (Z)-2-(7-fluoro-2-oxoindolin-3-ylidene)-N-(4-(trifluoromethyl)phenyl)hydrazinethioamide], the “expression level of IL-1β mRNA” value in assay [1] is “decreased dose-dependently”. Besides, in assay [2], the “DNA binding of EGR-1 (EGR-1-DNA complex band)” value (shortened to “DNA binding”) is “inhibited DNA binding of EGR-1 in a concentration-dependent manner”. In assay [3], the “Inhibition Rate (%)” value worked out at 70.20%. Further, the “expression level of TSLP mRNA” value in assay [4] was “decreased dose-dependently”. In assay [5], the epidermal thickness stood at 25.22±2.993 µm, the dermal thickness was determined as 163.4±7.905 µm, the macroscopic skin condition result is listed as “significant improvement in skin condition” and the expression of filaggrin entry was “recovered to a level similar to normal tissue”. In assay [5], the “expression of TSLP” value was “significantly decreased”, the “expression of MPO (neutrophil marker)” value is listed as “decreased similar to normal tissue”, the “expression of F4/80 (macrophage marker)” value is given as “decreased similar to normal tissue” and the mast cell infiltration result was “significantly reduced”. The “number of mast cells infiltrated” value in assay [5] worked out at 18±2 per 2.5 cm^2. The “expression level of IL-6 mRNA” value in assay [6] was “decreased dose-dependently”.
As to `COc1ccc2c(c1)NC(=O)/C2=N\NC(=S)Nc1cccc([N+](=O)[O-])c1` [Compound 23, (Z)-2-(6-methoxy-2-oxoindolin-3-ylidene)-N-(3-nitrophenyl)hydrazin-1-carbothioamide], the “expression level of IL-1β mRNA” value in assay [1] is on record as “decreased dose-dependently”. Moreover, in assay [2], the “DNA binding” value is “inhibited DNA binding of EGR-1 in a concentration-dependent manner”. Also, in assay [3], the “Inhibition Rate (%)” value was 67.63%. In addition, the “expression level of TSLP mRNA” value in assay [4] is reported as “decreased dose-dependently”. Also, in assay [5], the epidermal thickness was found to be 22.92±3.617 µm, the dermal thickness worked out at 147.5±8.302 µm, the macroscopic skin condition entry is on record as “significant improvement in skin condition” and the expression of filaggrin entry is given as “recovered to a level similar to normal tissue”. Moreover, in assay [5], the “expression of TSLP” value was “significantly decreased”, the “expression of MPO (neutrophil marker)” value was “decreased similar to normal tissue”, the “expression of F4/80 (macrophage marker)” value is “decreased similar to normal tissue” and the mast cell infiltration result is “significantly reduced”. Besides, in assay [5], the “number of mast cells infiltrated” value is reported as 19±5 per 2.5 cm^2. The “expression level of IL-6 mRNA” value in assay [6] is “decreased dose-dependently”.
With `COc1ccc2c(c1)NC(=O)/C2=N\NC(=S)Nc1ccc(C#N)cc1` [Compound 25, (Z)-N-(4-cyanophenyl)-2-(6-methoxy-2-oxoindolin-3-ylidene)hydrazinethioamide], the “expression level of IL-1β mRNA” value in assay [1] is “decreased dose-dependently”. Moreover, the “DNA binding” value in assay [2] was “inhibited DNA binding of EGR-1 in a concentration-dependent manner”. The “Inhibition Rate (%)” value in assay [3] stood at 76.13%. The “expression level of TSLP mRNA” value in assay [4] is on record as “decreased dose-dependently”. Also, in assay [5], the epidermal thickness came out at 23.46±1.530 µm, the dermal thickness is on record as 157.8±17.05 µm, the macroscopic skin condition entry is “significant improvement in skin condition” and the expression of filaggrin entry is recorded as “recovered to a level similar to normal tissue”. For the same compound, in assay [5], the “expression of TSLP” value is reported as “significantly decreased”, the “expression of MPO (neutrophil marker)” value is on record as “decreased similar to normal tissue”, the “expression of F4/80 (macrophage marker)” value is “decreased similar to normal tissue” and the mast cell infiltration entry is given as “significantly reduced”. The “number of mast cells infiltrated” value in assay [5] is recorded as 15±5 per 2.5 cm^2. In assay [6], the “expression level of IL-6 mRNA” value was “decreased dose-dependently”.
